Results: US9815854B2, “3-(3H-imidazo[4,5-B]pyridin-2-yl)-1H-pyrazolo[3,4-C]pyridine and therapeutic uses thereof” (Samumed, LLC, priority 2014, dated 2017)
pEC50, pIC50: −log10 of the molar value.

How the values were obtained:
[1] = tested on: primary human fibroblasts derived from IPF patients (LL29 cells); assay: Inhibition of the fibrotic process in TGF-β1-treated primary human fibroblasts from IPF patients (αSMA staining); format: cell-based; settings: Fibroblast, 96 h, TGF-β1 20 ng/mL, 4 days, read-out: Inhibition of fibrosis EC50
Excerpt: The above synthesized compounds were screened using primary human fibroblasts (derived from IPF patients) treated with TGF-β1 to determine their ability to inhibit the fibrotic process.
Human Fibroblast Celt Culture: Primary human fibroblasts derived from IPF patients (LL29 cells) [^1Xiaoqiu Liu, et.al., “Fibrotic Luna Fibroblasts Show Blunted Inhibition by cAMP Due to Deficient cAMP Response Element-Binding Protein Phosphorylation”, Journal of Pharmacology and Experimental Therapeutics (2005), 315(2), 678-687; ^2Watts, K. L., et.al., “RhoA signaling modulates cyclin D1 expression in human lung fibroblasts; implications for idiopathic pulmonary fibrosis”, Respiratory Research (2006), 7(1), 88] were obtained from American Type Culture Collection (ATCC) and expanded in F12 medium supplemented with 15% Fetal Bovine Serum and Penicillin/Streptomycin.
Compound Screening: Each compound was dissolved in DMSO as a 10 mM stock and used to prepare compound source plates. Serial dilution (1:2, 11-point dose-response curves from 10 μM to […]) and compound transfer was performed using the ECHO 550 (Lahcyte, Sunnyvale, Calif.) into 384-well clear bottom assay plates (Greiner Bio-One) with appropriate DMSO backfill fhr a final DMSO concentration of 0.1%. LL29 cells were plated at 1,500 cells/well in 80 μl/well F12 medium supplemented with 1% Fetal Bovine Serum. One hour after addition of the cells. TGF-β1 (Peprotech; 20 ng/mL) was added to the plates to induce fibrosis (ref. 1 and 2 above), Wells treated with TGF-β1 and containing DMSO were used as controls. Cells were incubated at 37° C. and 5% CO2 for 4 days. Following incubation for 4 days, SYTOX green nucleic acid stain (Life Technologies [Thermo Fisher Scientific]) was added to the wells at a final concentration of 1 uM and incubated at room temperature for 30 min. Cells were then fixed using 4% formaldehyde (Electron Microscopy Sciences), washed 3 times with PBS followed by blocking and penneabilization using 3% Bovine Serum Albumin (BSA; Sigma) and 0.3% Triton X-100 (Sigma) in PBS. Cells were then stained with antibody specific to α-smooth muscle actin (αSMA; Abeam) (ref 1 and 2 above) in 3% Bovine Serum Albumin (BSA; Sigma) and 0.3% Triton X-100 (Sigma) in PBS, and incubated overnight at 4° C. Cells were then washed 3 times with PBS, followed by incubation with Alexa Flor-647 conjugated secondary antibody (Life Technologies [Thermo Fisher Scientific]) and DAPI at room temperature for 1 hour, Cells were then washed 3 times with PBS and plates were sealed for imaging. αSMA staining was imaged by excitation at 630 nm and emission at 665 nm and quantified using the Compartmental Analysis program on the CellInsight CX5 (Thermo Scientific). Dead or apoptotic cells were excluded from analysis based on positive SYTOX green staining. % of total cells positive for αSMA were counted in each well and normalized to the average of 11 wells treated with TGF-β1 on the same plate using Dotmatics' Studies Software. The normalized averages (fold change over untreated) of 3 replicate wells for each compound concentration were used to create dose-responses curves and EC50 values were calculated using non-linear regression curve fit in the Dotmatics' Studies Software. The EC50 values are reported.

[2] = tested on: Wnt activity (Sp5-Luc reporter, TCF/LEF binding sites) in SW480 colon carcinoma cells; assay: Sp5-Luc Wnt reporter gene screening assay in SW480 colon carcinoma cells; format: cell-based, human; settings: Homo sapiens
Method in brief: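 SW480 cells stably transduced with a lentiviral luciferase reporter driven by a Sp5 promoter with eight TCF/LEF sites were plated at 10,000/well in 10% FCS medium. Luminescence was normalised to DMSO and IC50 derived by four-parameter fit.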

Row | SMILES | pEC50 [1] | pIC50 [2]
1 | CN1CCN(c2ccnc3[nH]c(-c4n[nH]c5cnc(-c6cncnc6)cc45)nc23)CC1 [Compound 234, 3-(7-(4-Methylpiperazin-1-yl)-3H-imidazo[4,5-b]pyridin-2-yl)-5-(pyrimidin-5-yl)-1H-pyrazolo[3,4-c]pyridine] | ≤ 5.00 | < 5.00
2 | CS(=O)(=O)NCc1cc(F)cc(-c2ccnc3[nH]c(-c4n[nH]c5cnc(-c6cncc(NC(=O)c7ccccc7)c6)cc45)nc23)c1 [Compound 427, N-(5-(3-(7-(3-Fluoro-5-(methylsulfonamidomethyl)phenyl)-3H-imidazo[4,5-b]pyridin-2-yl)-1H-pyrazolo[3,4-c]pyridin-5-yl)pyridin-3-yl)benzamide] | ≤ 5.00 | < 5.00
3 | O=C(Nc1cncc(-c2cc3c(-c4nc5cccnc5[nH]4)n[nH]c3cn2)c1)C1CCCCC1 [Compound 256, N-(5-(3-(3H-Imidazo[4,5-b]pyridin-2-yl)-1H-pyrazolo[3,4-c]pyridin-5-yl)pyridin-3-yl)cyclohexanecarboxamide] | ≤ 5.00 | 6.10
4 | O=C(Nc1cncc(-c2cc3c(-c4nc5c(-c6ccc(F)cc6)ccnc5[nH]4)n[nH]c3cn2)c1)C1CCC1 [Compound 46, N-(5-(3-(7-(4-Fluorophenyl)-3H-imidazo[4,5-b]pyridin-2-yl)-1H-pyrazolo[3,4-c]pyridin-5-yl)pyridin-3-yl)cyclobutanecarboxamide] | 6.62 | 7.29
5 | CN1CCN(c2ccnc3[nH]c(-c4n[nH]c5cnc(-c6cncc(N)c6)cc45)nc23)CC1 [Compound 211, 5-(3-(7-(4-Methylpiperazin-1)-3H-imidazo[4,5-b]pyridin-2-yl)-1H-pyrazolo[3,4-c]pyridin-5-yl)pyridin-3-amine] | ≤ 5.00 | 5.98
6 | c1ccc(CNCc2cncc(-c3cc4c(-c5nc6c(-c7cccnc7)ccnc6[nH]5)n[nH]c4cn3)c2)cc1 [Compound 101] | ≥ 8.05 | < 5.00
7 | CCC(=O)Nc1cncc(-c2cc3c(-c4nc5c(-c6cccs6)ccnc5[nH]4)n[nH]c3cn2)c1 [Compound 313] | 7.41 | 7.14
8 | O=C(Nc1cncc(-c2cc3c(-c4nc5c(-c6cccc(F)c6)ccnc5[nH]4)n[nH]c3cn2)c1)C1CC1 [Compound 19, N -(5-(3-(7-(3-Fluorophenyl)-3H-imidazo[4,5-b]pyridin-2-yl)-1H-pyrazolo[3,4-c]pyridin-5-yl)pyridin-3-yl)cyclopropanecarboxamide] | 6.52 | 7.33
9 | CS(=O)(=O)NCc1cc(F)cc(-c2ccnc3[nH]c(-c4n[nH]c5cnc(-c6cncc(CNCc7ccccc7)c6)cc45)nc23)c1 [Compound 439, N-(3-(2-(5-(5-((Benzylamino)methyl)pyridin-3-yl)-1H-pyrazolo[3,4-c]pyridin-3-yl)-3H-imidazo[4,5-b]pyridin-7-yl)-5-fluorobenzyl)methanesulfonamide] | ≥ 8.05 | < 5.00
10 | CCC(=O)Nc1cncc(-c2cc3c(-c4nc5c(N6CCCCC6)ccnc5[nH]4)n[nH]c3cn2)c1 [Compound 157] | ≤ 5.00 | < 5.00
11 | CCCCC(=O)Nc1cncc(-c2cc3c(-c4nc5c(-c6ccccn6)ccnc5[nH]4)n[nH]c3cn2)c1 [Compound 148, N-(5-(3-(7-(Pyridin-2-yl)-3H-imidazo[4,5-b]pyridin-2-yl)-1H-pyrazolo[3,4-c]pyridin-5-yl)pyridin-3-yl)pentanamide] | ≥ 8.05 | < 5.00
12 | CN(C)CCOc1cncc(-c2cc3c(-c4nc5c(-c6cccc(F)c6)ccnc5[nH]4)n[nH]c3cn2)c1 [Compound 947, 2-((5-(3-(7-(3-Fluorophenyl)-3H-imidazo[4,5-b]pyridin-2-yl)-1H-pyrazolo[3,4-c]pyridin-5-yl)pyridin-3-yl)oxy)-N,N-dimethylethan-1-amine] | ≤ 5.00 | 5.80
13 | Cc1ccc(-c2ccnc3[nH]c(-c4n[nH]c5cnc(-c6cncc(CN7CCCCC7)c6)cc45)nc23)s1 [Compound 379, 3-(7-(5-Methylthiophen-2-yl)-3H-imidazo[4,5-b]pyridin-2-yl)-5-(5-(piperidin-1-ylmethyl)pyridin-3-yl)-1H-pyrazolo[3,4-c]pyridine] | 6.52 | 6.74
14 | CCCC(=O)Nc1cncc(-c2cc3c(-c4nc5c(-c6cccc(F)c6)ccnc5[nH]4)n[nH]c3cn2)c1 [Compound 17, N-(5-(3-(7-(3-Fluorophenyl)-3H-imidazo[4,5-b]pyridin-2-yl)-1H-pyrazolo[3,4-c]pyridin-5-yl)pyridin-3-yl)butyramide] | ≥ 8.05 | 7.22
15 | CN(C)Cc1cncc(-c2cc3c(-c4nc5c(N6CCCCC6)ccnc5[nH]4)n[nH]c3cn2)c1 [Compound 169, N,N-Dimethyl-1-(5-(3-(7-(piperidin-1-yl)-3H-imidazo[4,5-b]pyridin-2-yl)-1H-pyrazolo[3,4-c]pyridin-5-yl)pyridin-3-yl)methanamine] | 6.32 | 6.60
16 | Fc1cccc(-c2ccnc3[nH]c(-c4n[nH]c5cnc(-c6cnccn6)cc45)nc23)c1 [Compound 954, 3-(7-(3-Fluorophenyl)-3H-imidazo[4,5-b]pyridin-2-yl)-5-(pyrazin-2-yl)-1 H-pyrazolo[3,4-c]pyridine] | ≤ 5.00 | 6.18
17 | CS(=O)(=O)NCc1cc(F)cc(-c2ccnc3[nH]c(-c4n[nH]c5cnc(-c6cncnc6)cc45)nc23)c1 [Compound 442, N-(3-Fluoro-5-(2-(5-(pyrimidin-5-yl)-1H-pyrazolo[3,4-c]pyridin-3-yl)-3H-imidazo[4,5-b]pyridin-7-yl)benzyl)methanesulfonamide] | ≤ 5.00 | < 5.00
18 | CC(C)Nc1cncc(-c2cc3c(-c4nc5c(-c6cccnc6)ccnc5[nH]4)n[nH]c3cn2)c1 [Compound 90, N-Isopropyl-5-(3-(7-(pyridin-3-yl)-3H-imidazo[4,5-b]pyridin-2-yl)-1H-pyrazolo[3,4-c]pyridin-5-yl)pyridin-3-amine] | ≤ 5.00 | < 5.00
19 | CC(C)CC(=O)Nc1cncc(-c2cc3c(-c4nc5c(-c6ccc(F)s6)ccnc5[nH]4)n[nH]c3cn2)c1 [Compound 340, N -(5-(3-(7-(5-Fluorothiophen-2-yl)-3H-imidazo[4,5-b]pyridin-2-yl)-1H-pyrazolo[3,4-c]pyridin-5-yl)pyridin-3-yl)-3-methylbutanamide] | 6.12 | 7.57
20 | CN1CCN(c2ccnc3[nH]c(-c4n[nH]c5cnc(-c6cncc(CN7CCCCC7)c6)cc45)nc23)CC1 [Compound 223, 3-(7-(4-Methylpiperazin-1-yl)-3H-imidazo[4,5-b]pyridin-2-yl)-5-(5-(piperidin-1-ylmethyl)pyridin-3-yl)-1H-pyrazolo[3,4-c]pyridine] | ≥ 8.05 | 5.29
21 | CN(C)c1cncc(-c2cc3c(-c4nc5c(-c6cccs6)ccnc5[nH]4)n[nH]c3cn2)c1 [Compound 319] | 7.12 | 6.90
22 | O=C(Nc1cncc(-c2cc3c(-c4nc5c(N6CCCCC6)ccnc5[nH]4)n[nH]c3cn2)c1)C1CC1 [Compound 175, N-(5-(3-(7-(Piperidin-1-yl)-3H-imidazo[4,5-b]pyridin-2-yl)-1H-pyrazolo[3,4-c]pyridin-5-yl)pyridin-3-yl)cyclopropanecarboxamide] | 5.41 | 6.81
23 | CCCC(=O)Nc1cncc(-c2cc3c(-c4nc5c(-c6ccoc6)ccnc5[nH]4)n[nH]c3cn2)c1 [Compound 303, N-(5-(3-(7-(Furan-3-yl)-3H-imidazo[4,5-b]pyridin-2-yl)-1H-pyrazolo[3,4-c]pyridin-5-yl)pyridin-3-yl)butyramide] | 7.70 | 7.10
24 | CC(C)(C)CC(=O)Nc1cncc(-c2cc3c(-c4nc5cccnc5[nH]4)n[nH]c3cn2)c1 [Compound 250, N-(5-(3-(3H-Imidazo[4,5-b]pyridin-2-yl)-1H-pyrazolo[3,4-c]pyridin-5-yl)pyridin-3-yl)-3,3-dimethylbutanamide] | ≤ 5.00 | < 5.00
